Assay results reported in paper PMC8984819, “Acetylene containing 2-(2-hydrazinyl)thiazole derivatives: design, synthesis, and in vitro and in silico evaluation of antimycobacterial activity against Mycobacterium tuberculosis” (RSC Advances, 2022).
In brackets after ≈: the same amount, converted by molar mass. Where two headings read alike, the source gives them in different places.

Columns and labels:
[1] = system: H37Rv strain of Mycobacterium tuberculosis; assay: microbe, parasite or virus in culture; type: cell-based; details: for inhibition at 50 µg/mL / inhibition at 100 µg/mL / inhibition at 2 µg/mL: H37RV; for inhibition at 50 µg/mL / inhibition at 100 µg/mL / % Inhibition ± SD: LRP assay; for inhibition at 50 µg/mL / inhibition at 100 µg/mL: read-out: % Inhibition ± SD
in vitro = type: cell-based; details: human
Procedure: HEK293 cells were grown in DMEM media containing 10% FBS and L-glutamine–penicillin–streptomycin solution at 37 °C in 5% CO2 condition. To perform MTT assay, 96 well tissue culture plate was seeded with […] number of cells. After 16 hours of seeding, cells were successfully attached to the culture plate and were treated with the active chemical compounds dissolved in DMSO at different concentrations as follows: 25 μg ml^−1, 50 μg ml^−1, 75 μg ml^−1 and 100 μg ml^−1. The cells were also treated with the DMSO to exclude the solvent-induced toxicity and used as an internal control. After 48 hours post active chemical compounds treatment, the MTT assay was performed as described previously.[45] MG-132, a potent proteasomal inhibitor and an inducer of apoptosis[46,47] was used as a positive control in the assay. Wells with media lacking any cells were as used as a negative control in the assay.
Tetrazolium-based […] cytotoxicity (MTT) assay is an important method to evaluate the viability of cells and it was performed for all the active chemical compounds using HEK293. To illustrate the percentage cell viability, the HEK293 cells were incubated with different concentrations of all active chemical compounds for 48 h. The compounds showing the viability of less than 50% of the cells were considered cytotoxic compounds. We observed that maximum compounds (such as 7, 9, 10, 13 and 25) show more than 75% of the cell viability at the highest concentration i.e. 100 μg ml^−1 for 48 hours of the treatment. Similarly, other compounds (such as 5, 6, 22, 26 and 31) show 70% cell viability upon 48 hours of the treatment. […] MG-132, a potent proteasomal inhibitor and an inducer of apoptosis was used as a positive control in the assay.

[2] = Mycobacterium tuberculosis, 50 µg/ml, M. Tb H37Rv
[3] = Mycobacterium tuberculosis, 100 µg/ml, M. Tb H37Rv

SMILES	inhibition at 50 µg/mL [1, 2]	inhibition at 100 µg/mL [1, 3]	melting point	also measured
C#CCOc1ccccc1C=O [Compound 1]	39.3 ± 1.17%			
C#CCOc1ccc(C=O)cc1OCC [Compound 2]	7.73 ± 0.23%	8.08 ± 0.24%	74 to 75 °C	
C#CCOc1ccc(Br)cc1C=O [Compound 3]	48.7 ± 1.46%	50.9 ± 1.52%	92 to 93 °C	
C#CCOc1ccccc1/C=N/NC(N)=S [Compound 4]	46.8 ± 1.4%		174 to 176 °C	antitubercular activity against M. Tb (active = 50% RLU reduction and above) ([1]; concentration not given): inactive
C#CCOc1ccc(Br)cc1/C=N/NC(N)=S [Compound 6]	51.2 ± 1.53%	56.9 ± 1.7%	204 to 206 °C	viability at 48 h, 100 μg ml^−1 (in vitro): 70%
C#CCOc1ccccc1/C=N/Nc1nc(-c2ccccc2)cs1 [Compound 7]	51.7 ± 1.54%		183 to 185 °C	viability at 48 h, 100 μg ml^−1 (in vitro): > 75%
C#CCOc1ccccc1/C=N/Nc1nc(-c2ccc(F)cc2)cs1 [Compound 8]	38 ± 1.14%		180 to 182 °C	
C#CCOc1ccccc1/C=N/Nc1nc(-c2ccc(Cl)cc2)cs1 [Compound 9]	50.8 ± 1.52%		160 to 164 °C	viability at 48 h, 100 μg ml^−1 (in vitro): > 75%
C#CCOc1ccccc1/C=N/Nc1nc(-c2ccc(Cl)c(Cl)c2)cs1 [Compound 10]	52 ± 1.56%			viability at 48 h, 100 μg ml^−1 (in vitro): > 75%
C#CCOc1ccccc1/C=N/Nc1nc(-c2ccc(Br)cc2)cs1 [Compound 11]	49.1 ± 1.47%		144 to 146 °C	
C#CCOc1ccccc1/C=N/Nc1nc(-c2ccc([N+](=O)[O-])cc2)cs1 [Compound 12]	29.1 ± 0.87%		185 to 187 °C	
C#CCOc1ccccc1/C=N/Nc1nc(-c2ccc(C#N)cc2)cs1 [Compound 13]	54.3 ± 1.62%		150 to 152 °C	viability at 48 h, 100 μg ml^−1 (in vitro): > 75%
C#CCOc1ccccc1/C=N/Nc1nc(-c2ccc(C)cc2)cs1 [Compound 14]	38.2 ± 1.14%			
C#CCOc1ccccc1/C=N/Nc1nc(-c2ccc(OC)cc2)cs1 [Compound 15]	10.3 ± 0.3%		181 to 183 °C	
C#CCOc1ccc(/C=N/Nc2nc(-c3ccccc3)cs2)cc1OCC [Compound 16]	40.5 ± 1.21%	48.7 ± 1.46%		
C#CCOc1ccc(/C=N/Nc2nc(-c3ccc(F)cc3)cs2)cc1OCC [Compound 17]	2.06 ± 0.06%	11.4 ± 0.34%	152 to 154 °C	
C#CCOc1ccc(/C=N/Nc2nc(-c3ccc(Cl)cc3)cs2)cc1OCC [Compound 18]	6.36 ± 0.19%	17.8 ± 0.53%		

SMILES	inhibition at 50 µg/mL [1, 2]	inhibition at 100 µg/mL [1, 3]	melting point	also measured
C#CCOc1ccc(/C=N/Nc2nc(-c3ccc(Cl)c(Cl)c3)cs2)cc1OCC [Compound 19]	2.38 ± 0.07%	7.21 ± 0.21%	153 to 155 °C	
C#CCOc1ccc(/C=N/Nc2nc(-c3ccc(Br)cc3)cs2)cc1OCC [Compound 20]	7.35 ± 0.22%	12.1 ± 0.36%		
C#CCOc1ccc(/C=N/Nc2nc(-c3ccc([N+](=O)[O-])cc3)cs2)cc1OCC [Compound 21]	48.7 ± 1.46%	50.9 ± 1.52%	191 to 193 °C	
C#CCOc1ccc(/C=N/Nc2nc(-c3ccc(C#N)cc3)cs2)cc1OCC [Compound 22]	50.9 ± 1.52%	57.2 ± 1.71%		viability at 48 h, 100 μg ml^−1 (in vitro): 70%
C#CCOc1ccc(/C=N/Nc2nc(-c3ccc(C)cc3)cs2)cc1OCC [Compound 23]	8.72 ± 0.26%	10.5 ± 0.31%	166 to 168 °C	
C#CCOc1ccc(/C=N/Nc2nc(-c3ccc(OC)cc3)cs2)cc1OCC [Compound 24]	5.64 ± 0.16%	33 ± 0.98%	183 to 185 °C	
C#CCOc1ccc(Br)cc1/C=N/Nc1nc(-c2ccccc2)cs1 [Compound 25]	61%	66.2 ± 1.98%	195 to 197 °C	viability at 48 h, 100 μg ml^−1 (in vitro): > 75%; % Inhibition ± SD ([1]; 50 µg/ml, M. Tb H37Rv): 61.86 ± 1.85%; MIC ([1]; Mycobacterium tuberculosis, concentration giving 50% inhibition of M. Tb H37Rv): 50 µg/mL (≈ 121 µM)
C#CCOc1ccc(Br)cc1/C=N/Nc1nc(-c2ccc(F)cc2)cs1 [Compound 26]	50.7 ± 1.52%	57.7 ± 1.73%	207 to 209 °C	viability at 48 h, 100 μg ml^−1 (in vitro): 70%
C#CCOc1ccc(Br)cc1/C=N/Nc1nc(-c2ccc(Cl)cc2)cs1 [Compound 27]	38.1 ± 1.14%	52.7 ± 1.58%	209 to 211 °C	% Inhibition ± SD ([1]; 100 µg/ml, M. Tb H37Rv): 50%
C#CCOc1ccc(Br)cc1/C=N/Nc1nc(-c2ccc(Cl)c(Cl)c2)cs1 [Compound 28]	43.8 ± 1.31%	50.2 ± 1.5%	213 to 215 °C	% Inhibition ± SD ([1]; 100 µg/ml, M. Tb H37Rv): 50%
C#CCOc1ccc(Br)cc1/C=N/Nc1nc(-c2ccc(Br)cc2)cs1 [Compound 29]	27.1 ± 0.81%	37.2 ± 1.11%	208 to 210 °C	
C#CCOc1ccc(Br)cc1/C=N/Nc1nc(-c2ccc(C#N)cc2)cs1 [Compound 30]	43.7 ± 1.31%	48.7 ± 1.46%	199 to 201 °C	
C#CCOc1ccc(Br)cc1/C=N/Nc1nc(-c2ccc(C)cc2)cs1 [Compound 31]	54.9 ± 1.64%	56.3 ± 1.68%	191 to 193 °C	viability at 48 h, 100 μg ml^−1 (in vitro): 70%; % Inhibition ± SD ([1]; 50 µg/ml, M. Tb H37Rv): 54%
C#CCOc1ccc(Br)cc1/C=N/Nc1nc(-c2ccc(OC)cc2)cs1 [Compound 32]	43.7 ± 1.31%	48.7 ± 1.46%	184 to 187 °C	
NNC(=O)c1ccncc1 [INH, isoniazid, reference compound]				inhibition at 2 µg/mL ([1]; Mycobacterium tuberculosis, at 2 µg/ml, reference drugs, M. Tb H37Rv, read-out: % Inhibition): > 99%
CO[C@H]1/C=C/O[C@@]2(C)Oc3c(C)c(O)c4c(O)c(c(/C=N/N5CCN(C)CC5)c(O)c4c3C2=O)NC(=O)/C(C)=C\C=C\[C@H](C)[C@H](O)[C@@H](C)[C@@H](O)[C@@H](C)[C@H](OC(C)=O)[C@@H]1C [RIF, rifampicin, reference compound]				inhibition at 2 µg/mL ([1]; Mycobacterium tuberculosis): > 99%
